Legend:
NMDA receptors = settings: read-out: Ki, binding to NMDA receptors; cited from earlier work
[1] = test system: patients with chronic PTSD; assay: Example 2: randomized, double-blind, midazolam-controlled crossover trial of IV ketamine, symptom ratings; type: in vivo, human
Description: Patients with chronic PTSD were enrolled in a controlled study. […] Exclusion criteria included lifetime history of psychotic or bipolar disorder, current bulimia or anorexia nervosa, alcohol abuse or dependence in the previous three months, serious unstable medical illness or sleep apnea, active suicidal or homicidal ideation on presentation, or current use of any psychotropic medications. All patients underwent a physical examination and laboratory screening including routine hematologic, biochemical and urine toxicology testing, as well as an electrocardiogram to rule out unstable medical illness and active substance use. To receive the second IV infusion, a CAPS score of at least 50 was required prior to the second infusion. The Institutional Review Board at Mount Sinai approved the study, and informed consent was obtained from all study participants.
Study participants were free of concomitant psychotropic medications for two weeks prior to randomization and for the duration of the study. For each procedure day, patients were assigned to receive a single IV infusion of ketamine hydrochloride (0.5 mg/kg) or midazolam (0.045 mg/kg), administered over 40 minutes. Order of infusions (ketamine-midazolam or midazolam-ketamine) was randomly assigned and administrations were two weeks apart. […] Only the research pharmacy was aware of drug identity, and all study personnel, including investigators, anesthesiologists, raters, patients and data analysts were blinded to randomization order.
Following admission and an overnight fast, an indwelling catheter was placed in the antecubital vein of the non-dominant arm. Pulse, blood pressure, pulse-oximetry and ECG monitoring were instituted (see Murrough J et al. Antidepressant efficacy of ketamine in treatment-resistant major depression: a two-site, randomized controlled trial. The American Journal of Psychiatry. 2013 Oct. 1; 170(10):1134-42). Ratings were administered by a trained rater during the infusion and at 240 minutes after the start of the infusion. A different rater, blinded to the ratings during post-infusion on infusion, administered ratings at pre-infusion baseline, 24 hours (Day 1) post-infusion (before patients were discharged from the hospital), 48 hours (Day 2), 72 hours (Day 3), and 7 days (Day 7) post-infusion. Ratings were also administered at 10 and 13 days post-infusion, though data analyses focused on the first week post-infusion due to the expected duration of ketamine action. Patients were instructed to abstain from taking psychotropic medications and from using alcohol or substances of abuse for the duration of the trial. As described above, patients who scored ≥50 on the CAPS 2 weeks after the first infusion received an infusion of the second study drug.
The primary outcome was PTSD symptom severity at 24 hours post-infusion, assessed with the Impact of Event Scale—Revised (IES-R). Twenty-four hours post-infusion was selected as the primary endpoint, as acute sedating and other side effects were expected to have resolved, while potential symptom improvement was expected to persist at 24 hours. Secondary outcome measures included the Montgomery-Asberg Depression Rating Scale (MADRS), the Quick Inventory of Depressive Symptomatology, Self-Report (QIDS-SR), and Clinical Global Impression-Severity (CGI-S) and -Improvement (GCI-I) scales administered by a study clinician at 24 hours, 48 hours, 72 hours and 7 days post-infusion. The IES-R was also administered at 48 hours, 72 hours, and 7 days post-infusion. Additionally, the CAPS was administered 7 days post-infusion.
A mixed-model approach was employed to test effects of treatment, period, and carryover.

[2] = by treatment group (drug given first)
[3] = individual responder patients, after first infusion
[4] = response = 50% improvement in IES-R score at 24 hours post-infusion

Which Ki (NMDA receptors) does the source give for `CN[C@@]1(c2ccccc2Cl)CCCCC1=O` [R(−)] here?
Its Ki is 1.1 µM.

With `Cc1ncc2n1-c1ccc(Cl)cc1C(c1ccccc1F)=NC2` [midazolam] as the compound, how does the “number of patients whose symptoms remained significantly improved” value ([1]; at 2 weeks, CAPS score <50, drug given first) read?
Its value is “one”.

What about the “decrease in CAPS score” value ([1]; at 7 days, single infusion study) of the same compound?
The value was 13 (sd=18).

What about the “CAPS Total (Week 1), mean” value [1, 2] of the same compound?
Its value is 65.69.

What about the “CAPS Total (Week 2), mean” value [1, 2] of the same compound?
The value was 70.81.

What about the “CGI-I (Week 1), mean” value [1, 2] of the same compound?
The value was 3.80.

What about the “CGI-I (Week 2), mean” value [1, 2] of the same compound?
The value was 3.91.

What about the “IES-R Total (Week 1), mean” value [1, 2] of the same compound?
Its value is 36.32.

What about the “IES-R Total (Week 2), mean” value [1, 2] of the same compound?
The value was 32.51.

And the “CAPS Total (Week 1)” value [1, 3]?
The value was 50.

And the “CAPS Total (Week 2)” value [1, 3]?
The value was 30.

And the “CGI-I (Week 1)” value [1, 3]?
The value was 4.

What about the “CGI-I (Week 2)” value [1, 3] of the same compound?
The value was 4.

And the “IES-R Total (Day 10)” value [1, 3]?
Its value is 6.

And the “IES-R Total (Week 1)” value [1, 3]?
Its value is 12.57.

What about the “IES-R Total (Week 2)” value [1, 3] of the same compound?
The value was 5.

What about the “IES-R_response No, Percent of total” value ([1]; of all 35 patients) of the same compound?
The value was 31.43%.

What about the “IES-R_response Yes, Percent of total” value ([1]; of all 35 patients) of the same compound?
Its value is 14.29%.

And the “IES-R_response No, Frequency” value [1, 4]?
Its value is 11.

What about the “IES-R_response Yes, Frequency” value [1, 4] of the same compound?
Its value is 5.

And the “IES-R_response No, Row Pct” value ([1]; share of non-responders)?
Its value is 55.00 Pct.

What about the “IES-R_response Yes, Row Pct” value ([1]; share of responders) of the same compound?
The value was 33.33 Pct.

What about the “IES-R_response No, Col Pct” value ([1]; share of the treatment group) of the same compound?
The value was 68.75 Pct.

And the “IES-R_response Yes, Col Pct (responded after infusion)” value ([1]; share of the treatment group, 24 hours post-infusion)?
Its value is 31.25%.
